Test results published in PMC6720883, “In Vitro Inhibitory Effects of APINACA on Human Major Cytochrome P450, UDP-Glucuronosyltransferase Enzymes, and Drug Transporters” (Molecules, 2019).

What was measured:
[1] = target: T1, OCT2 (Homo sapiens, UniProt O15244); test: Uptake of [3-H]methyl-4-phenylpyridinium in HEK293-OCT2 cells; type: in vitro ADME; settings: for Transport Rate (pmol/min) (mean ± SD): 0.1 μM probe substrate, n=3
T1 construct: host or cells: HEK293 (transient overexpression)
T1 sequence (O15244 1-555): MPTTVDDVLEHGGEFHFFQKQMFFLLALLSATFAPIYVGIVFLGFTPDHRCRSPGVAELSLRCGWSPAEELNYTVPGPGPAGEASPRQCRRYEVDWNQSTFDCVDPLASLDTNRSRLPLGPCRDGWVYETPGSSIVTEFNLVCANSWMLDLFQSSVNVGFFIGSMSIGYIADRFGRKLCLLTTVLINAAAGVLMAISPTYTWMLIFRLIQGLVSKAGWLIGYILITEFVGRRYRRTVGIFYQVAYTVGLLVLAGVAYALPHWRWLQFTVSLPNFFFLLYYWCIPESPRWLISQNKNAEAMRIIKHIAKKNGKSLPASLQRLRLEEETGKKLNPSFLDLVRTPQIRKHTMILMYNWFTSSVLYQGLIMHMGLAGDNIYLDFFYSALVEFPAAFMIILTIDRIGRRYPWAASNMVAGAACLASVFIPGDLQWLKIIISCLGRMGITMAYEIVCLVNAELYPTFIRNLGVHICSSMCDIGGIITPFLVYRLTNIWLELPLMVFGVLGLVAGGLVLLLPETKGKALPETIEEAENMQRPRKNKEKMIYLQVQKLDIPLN
Protocol: (§1) To examine the effects of APINACA and typical inhibitors on transporter activity, the uptake of a probe substrate into HEK293 cells overexpressing the respective solute carrier transporters was measured in the presence of APINACA (final concentrations of 0–250 μM) or typical inhibitors for 5 min. The concentrations and probe substrates were selected as follows: 0.1 μM [3-H]MPP^+ (for OCT1 and OCT2), 0.1 μM [3-H]PAH (for OAT1), 0.1 μM [3-H]ES (for OAT3 and OATP1B1), and 0.1 μM [3-H]EG (for OATP1B3).
(§2) 12.5 (Systat Software, Inc.; San Jose, CA, USA). […] 1.1 (Systat Software, Inc.).

[2] = target: P-glycoprotein (P-gp) (Homo sapiens, UniProt P08183); test: B to A transport of [3-H]digoxin in LLC-PK1-MDR1 cells; settings: for Transport Rate (pmol/min) (mean ± SD): 0.1 μM probe substrate, B to A, n=3
P-glycoprotein (P-gp), sequence (P08183 whole entry): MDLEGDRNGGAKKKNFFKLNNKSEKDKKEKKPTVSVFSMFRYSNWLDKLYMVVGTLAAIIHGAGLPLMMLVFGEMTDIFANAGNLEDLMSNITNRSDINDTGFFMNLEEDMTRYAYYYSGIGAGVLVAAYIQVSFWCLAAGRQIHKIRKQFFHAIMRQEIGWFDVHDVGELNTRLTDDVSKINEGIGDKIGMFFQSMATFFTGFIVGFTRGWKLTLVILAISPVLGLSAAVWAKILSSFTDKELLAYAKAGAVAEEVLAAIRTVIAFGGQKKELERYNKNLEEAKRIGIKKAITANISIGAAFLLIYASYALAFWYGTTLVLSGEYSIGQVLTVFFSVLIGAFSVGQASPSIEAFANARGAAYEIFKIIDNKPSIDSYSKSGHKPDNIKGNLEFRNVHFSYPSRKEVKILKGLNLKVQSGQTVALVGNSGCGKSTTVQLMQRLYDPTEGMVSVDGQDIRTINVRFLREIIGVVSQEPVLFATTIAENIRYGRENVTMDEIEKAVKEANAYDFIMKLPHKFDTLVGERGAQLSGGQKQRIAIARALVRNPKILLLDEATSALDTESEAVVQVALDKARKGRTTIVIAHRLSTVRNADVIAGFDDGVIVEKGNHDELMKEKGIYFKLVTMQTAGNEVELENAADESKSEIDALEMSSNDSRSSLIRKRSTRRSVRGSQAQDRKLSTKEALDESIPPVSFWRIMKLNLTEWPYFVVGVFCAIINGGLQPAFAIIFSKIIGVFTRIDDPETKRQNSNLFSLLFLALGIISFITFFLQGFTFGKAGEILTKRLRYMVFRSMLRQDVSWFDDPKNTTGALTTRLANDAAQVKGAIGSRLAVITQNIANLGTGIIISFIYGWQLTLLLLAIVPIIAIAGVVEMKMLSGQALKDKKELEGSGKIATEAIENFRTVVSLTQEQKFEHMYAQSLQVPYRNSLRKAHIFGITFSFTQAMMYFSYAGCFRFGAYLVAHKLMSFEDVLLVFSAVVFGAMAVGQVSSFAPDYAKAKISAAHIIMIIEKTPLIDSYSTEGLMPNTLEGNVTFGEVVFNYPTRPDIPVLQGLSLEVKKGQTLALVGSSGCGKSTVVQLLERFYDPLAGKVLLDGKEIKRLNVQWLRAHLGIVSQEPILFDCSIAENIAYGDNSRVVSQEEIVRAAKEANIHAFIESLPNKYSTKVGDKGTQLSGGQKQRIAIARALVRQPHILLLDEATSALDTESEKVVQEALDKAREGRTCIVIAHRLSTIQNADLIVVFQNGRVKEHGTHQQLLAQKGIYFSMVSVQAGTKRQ
Protocol: The cells were seeded onto filter membranes at a density of 2 × 10^5 cells/well for 5 days with TEER values over 450 Ω·cm^2. The B to A transport of 0.1 μM [3-H]digoxin in LLC-PK1-MDR1 cells was measured by adding 1.5 mL of HBSS containing APINACA (final concentrations of 0–100 μM) on the basal side and by adding 0.5 mL of HBSS without APINACA on the apical side of the insert using protocols identical to those described above.
(§3) 1.1 (Systat Software, Inc.).

[3] = target: T2, OATP1B1 (Homo sapiens, UniProt Q9Y6L6); test: Uptake of [3-H]estrone-3-sulfate in HEK293-OATP1B1 cells; type: in vitro ADME; settings: for Transport Rate (pmol/min) (mean ± SD): 0.1 μM probe substrate, n=3
T2 construct: host or cells: HEK293 (transient overexpression)
T2 sequence (Q9Y6L6 1-691): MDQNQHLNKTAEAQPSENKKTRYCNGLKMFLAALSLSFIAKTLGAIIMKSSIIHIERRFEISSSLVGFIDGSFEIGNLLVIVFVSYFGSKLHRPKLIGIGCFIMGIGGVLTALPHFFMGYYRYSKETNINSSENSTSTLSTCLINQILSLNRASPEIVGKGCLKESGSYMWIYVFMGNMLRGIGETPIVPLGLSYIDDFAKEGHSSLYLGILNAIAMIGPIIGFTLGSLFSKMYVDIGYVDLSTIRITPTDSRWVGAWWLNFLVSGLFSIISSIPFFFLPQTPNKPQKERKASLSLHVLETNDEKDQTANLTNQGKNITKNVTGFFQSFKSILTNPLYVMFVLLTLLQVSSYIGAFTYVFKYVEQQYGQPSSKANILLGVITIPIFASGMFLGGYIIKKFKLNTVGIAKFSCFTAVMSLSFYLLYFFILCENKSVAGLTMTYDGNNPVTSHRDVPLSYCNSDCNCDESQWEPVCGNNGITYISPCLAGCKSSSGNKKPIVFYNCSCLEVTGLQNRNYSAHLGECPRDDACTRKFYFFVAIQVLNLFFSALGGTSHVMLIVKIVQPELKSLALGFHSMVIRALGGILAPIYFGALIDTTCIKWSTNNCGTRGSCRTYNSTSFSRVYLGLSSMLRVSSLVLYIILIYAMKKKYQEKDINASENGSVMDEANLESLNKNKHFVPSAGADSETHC
Protocol: as §1, §2

[4] = target: T3, OAT3 (Homo sapiens, UniProt Q8TCC7); test: Uptake of [3-H]estrone-3-sulfate in HEK293-OAT3 cells; type: in vitro ADME; settings: for Transport Rate (pmol/min) (mean ± SD): 0.1 μM probe substrate, n=3
T3 construct: host or cells: HEK293 (transient overexpression)
T3 sequence (Q8TCC7 1-542): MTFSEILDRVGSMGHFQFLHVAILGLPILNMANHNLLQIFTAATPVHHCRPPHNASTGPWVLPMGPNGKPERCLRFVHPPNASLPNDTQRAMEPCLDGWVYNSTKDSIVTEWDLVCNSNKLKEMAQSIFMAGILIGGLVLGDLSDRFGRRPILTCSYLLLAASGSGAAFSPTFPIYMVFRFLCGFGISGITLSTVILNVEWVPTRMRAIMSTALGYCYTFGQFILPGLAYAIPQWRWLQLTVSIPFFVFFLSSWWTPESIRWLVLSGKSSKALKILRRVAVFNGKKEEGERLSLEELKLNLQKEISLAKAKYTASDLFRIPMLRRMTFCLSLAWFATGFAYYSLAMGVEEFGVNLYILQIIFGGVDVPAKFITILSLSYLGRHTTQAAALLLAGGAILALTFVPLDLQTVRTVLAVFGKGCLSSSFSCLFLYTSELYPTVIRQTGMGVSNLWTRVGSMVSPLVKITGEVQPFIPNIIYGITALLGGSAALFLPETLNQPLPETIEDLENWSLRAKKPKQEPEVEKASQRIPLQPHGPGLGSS
Protocol: The concentrations and probe substrates were selected as follows: 0.1 μM [3-H]MPP^+ (for OCT1 and OCT2), 0.1 μM [3-H]PAH (for OAT1), 0.1 μM [3-H]ES (for OAT3 and OATP1B1), and 0.1 μM [3-H]EG (for OATP1B3).
as §3

[5] = target: T4, BCRP (Homo sapiens, UniProt Q9UNQ0); test: B to A transport of [3-H]estrone-3-sulfate in LLC-PK1-BCRP cells; type: in vitro ADME; settings: for Transport Rate (pmol/min) (mean ± SD): 0.1 μM probe substrate, B to A, n=3
T4 sequence (Q9UNQ0 1-655): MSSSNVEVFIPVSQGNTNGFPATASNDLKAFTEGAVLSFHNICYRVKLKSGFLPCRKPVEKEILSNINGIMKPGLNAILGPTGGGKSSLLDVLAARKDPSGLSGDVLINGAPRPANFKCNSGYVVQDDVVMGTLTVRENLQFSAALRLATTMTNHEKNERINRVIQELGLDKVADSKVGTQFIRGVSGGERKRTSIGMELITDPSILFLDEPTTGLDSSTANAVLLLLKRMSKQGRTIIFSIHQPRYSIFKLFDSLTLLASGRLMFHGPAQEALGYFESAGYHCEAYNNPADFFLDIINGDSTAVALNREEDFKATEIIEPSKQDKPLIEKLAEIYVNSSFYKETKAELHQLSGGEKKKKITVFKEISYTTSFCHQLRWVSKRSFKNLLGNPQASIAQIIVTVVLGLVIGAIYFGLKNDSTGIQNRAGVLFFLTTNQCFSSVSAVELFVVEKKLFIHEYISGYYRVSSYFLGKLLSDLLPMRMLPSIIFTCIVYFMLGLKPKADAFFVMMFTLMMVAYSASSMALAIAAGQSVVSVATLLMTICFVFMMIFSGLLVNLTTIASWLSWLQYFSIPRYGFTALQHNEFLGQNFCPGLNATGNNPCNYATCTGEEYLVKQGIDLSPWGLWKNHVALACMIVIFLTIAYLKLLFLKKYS

[6] = target: T5, OCT1 (Homo sapiens, UniProt O15245); test: Uptake of [3-H]methyl-4-phenylpyridinium in HEK293-OCT1 cells; type: in vitro ADME; settings: for Transport Rate (pmol/min) (mean ± SD): 0.1 μM probe substrate, n=3
T5 construct: host or cells: HEK293 (transient overexpression)
T5 sequence (O15245 1-554): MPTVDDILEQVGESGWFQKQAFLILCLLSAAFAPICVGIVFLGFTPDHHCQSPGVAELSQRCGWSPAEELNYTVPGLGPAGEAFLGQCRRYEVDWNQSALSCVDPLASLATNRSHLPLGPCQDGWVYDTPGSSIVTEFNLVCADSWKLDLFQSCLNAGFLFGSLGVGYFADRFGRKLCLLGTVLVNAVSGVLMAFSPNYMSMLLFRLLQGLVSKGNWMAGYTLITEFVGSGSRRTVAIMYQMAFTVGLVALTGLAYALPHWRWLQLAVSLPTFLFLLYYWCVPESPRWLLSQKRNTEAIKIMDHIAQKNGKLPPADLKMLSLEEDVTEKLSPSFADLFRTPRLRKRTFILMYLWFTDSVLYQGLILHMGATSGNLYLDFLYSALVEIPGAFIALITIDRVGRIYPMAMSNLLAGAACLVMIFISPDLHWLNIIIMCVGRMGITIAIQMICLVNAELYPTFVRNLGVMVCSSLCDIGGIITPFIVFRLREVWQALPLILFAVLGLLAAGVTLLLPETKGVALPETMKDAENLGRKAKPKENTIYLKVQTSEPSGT
Protocol: as §1, §2

CN/C(=N/CCSCc1nc[nH]c1C)NC#N [Cimetidine]
IC50 ([1]; HEK293-OCT2 cells, 0.1 μM [3-H]methyl-4-phenylpyridinium, 5 min uptake, read-out: IC50 for inhibition of OCT2 transport): 197 µM

C[C@H]1O[C@@H](O[C@H]2[C@@H](O)C[C@H](O[C@H]3[C@@H](O)C[C@H](O[C@H]4CC[C@@]5(C)[C@H](CC[C@@H]6[C@@H]5C[C@@H](O)[C@]5(C)[C@@H](C7=CC(=O)OC7)CC[C@]65O)C4)O[C@@H]3C)O[C@@H]2C)C[C@H](O)[C@@H]1O [Digoxin]
Fold Increase of transport rate ([2]; LLC-PK1-MDR1 versus Mock): 7.3 | Transport Rate (pmol/min) (mean ± SD) ([2]; LLC-PK1 Mock cells (comparison for MDR1)): 0.14 ± 0.02 pmol/min | Transport Rate (pmol/min) (mean ± SD) ([2]; LLC-PK1 cells overexpressing MDR1 (P-gp)): 1.06 ± 0.07 pmol/min

C[C@]12CC[C@@H]3c4ccc(OS(=O)(=O)O)cc4CC[C@H]3[C@@H]1CCC2=O [Estrone-3-sulfate]
Fold Increase of transport rate ([3]; HEK293-OATP1B1 versus Mock): 16.5 | Transport Rate (pmol/min) (mean ± SD) ([3]; HEK293 Mock cells (comparison for OATP1B1)): 0.76 ± 0.04 pmol/min | Transport Rate (pmol/min) (mean ± SD) ([3]; HEK293 cells overexpressing OATP1B1): 12.58 ± 1.57 pmol/min | Fold Increase of transport rate ([4]; HEK293-OAT3 versus Mock): 15.3 | Transport Rate (pmol/min) (mean ± SD) ([4]; HEK293 Mock cells (comparison for OAT3)): 0.98 ± 0.20 pmol/min | Transport Rate (pmol/min) (mean ± SD) ([4]; HEK293 cells overexpressing OAT3): 14.96 ± 3.09 pmol/min | Fold Increase of transport rate ([5]; LLC-PK1-BCRP versus Mock): 4.7 | Transport Rate (pmol/min) (mean ± SD) ([5]; LLC-PK1 Mock cells (comparison for BCRP)): 0.44 ± 0.07 pmol/min | Transport Rate (pmol/min) (mean ± SD) ([5]; LLC-PK1 cells overexpressing BCRP): 2.09 ± 0.12 pmol/min

C[n+]1ccc(-c2ccccc2)cc1 [Methyl-4-phenylpyridinium]
Fold Increase of transport rate ([6]; HEK293-OCT1 versus Mock): 17.1 | Transport Rate (pmol/min) (mean ± SD) ([6]; HEK293 Mock cells (comparison for OCT1)): 0.60 ± 0.09 pmol/min | Transport Rate (pmol/min) (mean ± SD) ([6]; HEK293 cells overexpressing OCT1): 10.24 ± 0.98 pmol/min | Fold Increase of transport rate ([1]; HEK293-OCT2 versus Mock): 25.5 | Transport Rate (pmol/min) (mean ± SD) ([1]; HEK293 Mock cells (comparison for OCT2)): 0.66 ± 0.11 pmol/min | Transport Rate (pmol/min) (mean ± SD) ([1]; HEK293 cells overexpressing OCT2): 16.78 ± 0.43 pmol/min
